Measured values taken from patent US9403806B1, “Cognition enhancing compounds and compositions, methods of making, and methods of treating” (NeuroSolis, Inc., priority 2010, dated 2016).

Key:
CD-I mice = assay: Apomorphine induced climbing model of psychosis; type: in vivo; settings: mice, sc, apomorphine 2 mg/kg (FIG. 1)
Experimental: As described in Costall et. al. European Journal of Pharmacology 1978, 50, 39. individual CD-I mice, 1-2 months old, were placed in a cylindrical wire mesh cage (13.2 cm high×13.2 cm diameter) constructed of steel wire 1 mm thick spaced at 1.2 cm^2. Cylinders were placed in a standard OptiMICE mouse cage (29×32×9×29 cm and 14 cm high) with adequate wood chip bedding provided. Observations of climbing (defined as 3 or more paws of the ground) were carried out every 5 minutes at a duration of 1 minute for […]. Animals were injected subcutaneously under isoflurane anesthesia with test compounds, reference compounds, which included clozapine, haloperidol, olanzapine and xanomeline, or PBS as a control. This was followed 5 minutes later by 2 mg/kg apomorphine hydrochloride. All drugs were dissolved in PBS or a mixture of (by volume) 96% PBS and 4% hydroxypropyl-beta-cyclodextrin, and dosed at a rate of 5 ml per kilogram of body weight. Following injections, animals were replaced in the mesh cages and observed for climbing (defined as 3 or more paws off the ground) every 5 minutes for 1 minute for 60 minutes after dosing.

rat M3 receptors = biological target: T1, rat M3 receptors (Rattus norvegicus, UniProt P08483); assay: PI turnover (inositol phosphate production) in M3-CHO cells; type: cell-based; settings: mean Smax relative to carbachol (100.0); CHO cells expressing rat M3
T1 construct: host or cells: CHO (M3-CHO)
T1 sequence (P08483 whole entry): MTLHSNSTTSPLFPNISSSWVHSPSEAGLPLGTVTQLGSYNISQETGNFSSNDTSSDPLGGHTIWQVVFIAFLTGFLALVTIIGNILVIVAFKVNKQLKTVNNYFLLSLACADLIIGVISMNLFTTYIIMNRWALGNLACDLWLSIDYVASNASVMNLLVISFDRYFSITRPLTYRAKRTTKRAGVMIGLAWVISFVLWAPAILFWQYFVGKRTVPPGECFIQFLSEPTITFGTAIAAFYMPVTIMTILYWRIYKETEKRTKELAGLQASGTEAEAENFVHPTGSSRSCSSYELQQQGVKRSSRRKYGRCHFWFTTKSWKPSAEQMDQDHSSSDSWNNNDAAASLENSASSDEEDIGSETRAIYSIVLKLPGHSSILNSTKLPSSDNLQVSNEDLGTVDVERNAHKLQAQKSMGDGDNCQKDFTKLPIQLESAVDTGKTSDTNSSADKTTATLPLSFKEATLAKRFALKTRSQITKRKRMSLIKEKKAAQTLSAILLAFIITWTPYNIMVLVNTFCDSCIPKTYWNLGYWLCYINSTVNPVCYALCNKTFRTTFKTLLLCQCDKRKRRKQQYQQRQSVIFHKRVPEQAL
Experimental: (§1) The medium was changed to 70 μL/well of inositol-free DMEM containing 2 mM glutamine, 10% FBS and 10 μCi/ml of [3H]-inositol (PE:cat # NET114A250UC), incubated overnight as above, then 100 μL of a solution of the test compound in HBSS containing 10 mM LiCl and 20 mM HEPES, pH 7.4 was added, incubation was continued for 60 min under the above conditions, and the test was stopped by removing the test compound and replacing with 100 μL of 50 mM formic acid in water at 4° C. […] The compounds in Table 1 are all dihydropyrimidine-oxadiazoles which vary only at the oxadiazole side chain.

[1] = Metabolites in serum and urine of dosed rats (LC-MS); type: in vivo; settings: rat serum or urine, 10 mg/kg po
Experimental: Oxadiazoles disclosed herein as well as other oxadiazoles were investigated to determine the formation of metabolites. Animals were dosed, blood taken, serum prepared, serum proteins precipitated and ultrafiltrates prepared as described in Example 6. In separate experiments, urine was collected from rats for 16-24 hours after dosing, using standard metabolic cages. The urine container and collected urine were maintained at 4° C. Urine was lyophilized, taken back into water. The uftrafiltrate was prepared by adding formic acid to a final concentration of 1% to the urine samples, then filtered through a 0.2 um nylon membrane. The ultrafiltrate was subjected to LC-MS analysis. Instead of measuring the product ions in Q3, manual Q1 scans of the liquid chromatograph were undertaken, seeking parent ions of potential metabolites of the compounds. The criteria for identifying metabolites were as follows: (1) the ion should be present in the sera or urines of dosed rats, but not in sera or urines from non-dosed rats (2) the ion should be identifiable as a metabolic derivative of the dosed compound (e.g. loss of a functional chemical moiety, addition of a hydroxyl group or a glucuronic acid moiety, etc). Metabolites were determined not to be present if no compound meeting the above criteria could be detected in serum or urine.

[2] = Blood and brain concentrations (rats), oral gavage; type: in vivo, Long-Evans Hooded rats; settings: rat, 10 mg/kg po, 1 hr, relative to MCD-386 = 1.00
Experimental: Long-Evans Hooded rats (Charles River: male, 250-350 g) were dosed with solutions of test compounds in PBS by oral gavage. At the desired time after dosing, the animals were anesthetized with isoflurane, and then euthanized by cervical dislocation. Blood was obtained by cardiac puncture, transferred to a 1.5 mL microcentrifuge tube containing 15U Heparin, and the plasma recovered after centrifugation. Brains were dissected, weighed, immediately chilled to 4° C., and homogenized using a PowerGen 125 homogenizer in five volumes of ice-cold 2% formic acid. Proteins were precipitated from plasma and brain homogenate with two and five volumes respectively of ice-cold 2% formic acid and clarified by centrifugation. The supernatant was ultra-filtered by centrifugation through a 3K MWCO spin column (Pall Life Sciences), following the manufacturer's instructions. The concentration of compound in the ultra-filtrate was subjected to reverse-phase liquid chromatography using a 150×2.1 mm Agilent C8 reverse-phase column on a Shimadzu Prominence LC, eluting the compounds with a gradient of 2% to 50% of acetonitrile+0.1% formic acid for compound MI-50,382, or an isocratic flow of 2% acetonitrile+0.1% formic acid for the rest of the compounds listed. The concentration of the compound in the column effluent was measured using an Applied Biosystems API-3200 triple quadrupole mass spectrometer equipped with an electrospray sample injection system. The counts of the characteristic parent and product ions of each test compound were converted to concentration units by comparison with a standard calibration curve.

PAMPA test, Example 34 = settings: PAMPA
[3] = test system: hippocampal inositol phosphate; assay: In vivo tissue inositol phosphate signaling pathway activation, hippocampus; design: species or system Long Evans Hooded rats; settings: rats, 30 mg/kg sc (FIG. 10B)
Experimental: Experimental compounds or drug substances were administered using standard techniques to Long Evans Hooded rats weighing 225 to 350 grams, and which had been pretreated with a subcutaneous injection of lithium chloride at a suitable dose between 3 and 10 mmoles per kg. At suitable times the animals were briefly anesthetized using 5% isoflurane and euthanized by decapitation. The brains and submaxillary salivary glands were rapidly dissected out, and the hippocampuses were dissected from the brains. The dissected tissues were homogenized in a suitable volume of ice-cold phosphate-buffered saline containing 10 mM lithium chloride, pH7.4, using a tissue homogenizer, and used immediately or frozen in aliquots at −80 deg C. for future use. The concentration of inositol-1-phosphate was determined in the homogenates using the IPOne TR-FRET assay (CisBio cat no 621PAPEB), following the manufacturer's instruction

rat M1 receptors = biological target: T2, rat M1 receptors (Rattus norvegicus, UniProt P08482); assay: PI turnover (inositol phosphate production) in M1-CHO cells; type: cell-based; settings: mean Smax relative to carbachol (100.0); CHO cells expressing rat M1
T2 construct: host or cells: CHO (M1-CHO)
T2 sequence (P08482 1-460): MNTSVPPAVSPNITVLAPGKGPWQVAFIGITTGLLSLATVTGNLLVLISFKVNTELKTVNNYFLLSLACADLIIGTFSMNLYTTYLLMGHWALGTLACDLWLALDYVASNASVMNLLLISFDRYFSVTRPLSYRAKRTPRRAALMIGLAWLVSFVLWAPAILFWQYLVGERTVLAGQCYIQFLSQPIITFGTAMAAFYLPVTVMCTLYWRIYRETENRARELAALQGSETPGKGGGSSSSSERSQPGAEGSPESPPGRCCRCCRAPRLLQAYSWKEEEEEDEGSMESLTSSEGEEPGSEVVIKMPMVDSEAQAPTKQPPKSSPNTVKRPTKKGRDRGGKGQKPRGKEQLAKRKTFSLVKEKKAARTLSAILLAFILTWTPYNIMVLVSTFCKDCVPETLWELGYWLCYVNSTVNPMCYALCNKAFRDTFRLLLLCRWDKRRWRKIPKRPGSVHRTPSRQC
Experimental: as §1

M3/CHO PI turnover Relative Mean Smax (rat M3 receptors): 46.4
Presence of metabolites (10 mg/kg po) [1]: Yes
Brain Cmax (10 mg/kg po) 1 hr MCD-386 = 1.00 [2]: 1.00
Papp (PAMPA test, Example 34): 0.05 ×10⁻⁶ cm/s
M1/CHO PI turnover Relative Mean Smax (rat M1 receptors): 70.0
SMILES: CCc1noc(C2CN=CNC2)n1 (stereo not shown) [MCD-386, 3-ethyl-5-(1,4,5,6-tetrahydropyrimidin-5-yl)-1,2,4-oxadiazole]
activity in the apomorphine induced climbing model (CD-I mice): inactive
increase in the concentration of IP in the hippocampus [3]: 71%
